Test system: ochratoxin A aptamer, 0 complementary bp (no tail) (DNA, aptamer) GATCGGGTGTGGGTGGCGTAAAGGGAGCATCGGACA
Test: electrochemical aptamer-based sensor, square wave voltammetry (KDM)
Conditions: 1X PBS pH 7.4, room temperature

## CCCC[C@@H](C)[C@@H](OC(=O)C[C@@H](CC(=O)O)C(=O)O)[C@H](C[C@@H](C)C[C@H](O)CCCC[C@@H](O)C[C@H](O)[C@H](C)N)OC(=O)C[C@@H](CC(=O)O)C(=O)O
Tested at 10 µM only, no KDM signal
  binding: no

## C[C@@H]1Cc2c(Cl)cc(C(=O)N[C@@H](Cc3ccccc3)C(=O)O)c(O)c2C(=O)O1
1X PBS (Na+, K+; concentrations not given), undiluted iced coffee rows (ions not given), flowing, KDM of 240 Hz and 20 Hz
  KD: 6.5 ± 0.6 µM

Reference: article PMC6016998 (2018)
